“And” between values parts separate entries of the source, which are not always exact repeats. Identical values can stand only once. Where a SMILES comes first, the peptide text is derived from it. Bridges are numbered along the chain shown (N, C = ends).
Assays:
S. aureus 209P = assay: Antimicrobial assay, broth microdilution MIC; type: cell-based, Staphylococcus aureus; conditions: Gram +, MH medium with NaCl, 24 h 37 °C, median of three independent triplicated experiments
Procedure: (§1) Bacterial test cultures were grown in the Mueller-Hinton (MH) medium at 37 °C to mid-log phase and then diluted with the 2 x MH medium supplemented with 1.8% NaCl. 50 µL of the bacterial suspension with a final cell concentration of 10^6 CFU/mL were added to aliquots of 50 µL of the peptide solutions and serially diluted with sterilized 0.1% bovine serum albumin in 96-well flat-bottom polystyrene microplates (Eppendorf, Hamburg, Germany). Bacterial cells were incubated for 24 h at 37 °C and 900 rpm on the plate thermoshaker (Biosan, Riga, Latvia). The minimum inhibitory concentrations (MIC) were determined as the lowest peptide concentration that prevented growth of a test microorganism observed as visible turbidity. The results were expressed as median values of three independent triplicated experiments. Assessment of antimicrobial activities of the recombinant PM III, other polyphemusins, and tachyplesins was conducted against Gram-negative (Escherichia coli ML-35p, Klebsiella pneumoniae (clinical isolate, CI 287), Pseudomonas aeruginosa PAO1) and Gram-positive (Staphylococcus aureus ATCC 29213, Staphylococcus aureus 209P, Bacillus subtilis B-886, Micrococcus luteus B-1314) bacteria.

S. aureus ATCC 29213 = assay: Antimicrobial assay, broth microdilution MIC; type: cell-based, Staphylococcus aureus; conditions: S. aureus ATCC 29213, Gram +, MH medium with NaCl, 24 h 37 °C, median of three independent triplicated experiments
Procedure: as §1

K. pneumoniae (CI 287) = assay: Antimicrobial assay, broth microdilution MIC; type: cell-based, Klebsiella pneumoniae; conditions: Gram -, MH medium with NaCl, 24 h 37 °C, median of three independent triplicated experiments
Procedure: as §1

E. coli ML-35p = assay: Antimicrobial assay, broth microdilution MIC; type: cell-based, Escherichia coli; conditions: Gram -, MH medium with NaCl, peptide diluted in 0.1% BSA, 10^6 CFU/mL, 24 h 37 °C, median of three independent triplicated experiments
Procedure: as §1

[1] = system: HEK 293T (transformed human embryonic kidney cells); type: cell-based; conditions: MTT after 48 h, DMEM/F12 with 10% FBS, mean ± SD of at least three independent experiments
Procedure: (§2) Cytotoxic activities of PM III, its isoforms, and tachyplesins against seven human cell lines were evaluated. Four cancer (HL-60 acute promyelocytic leukemia, HeLa cervix adenocarcinoma, SK-BR-3 breast adenocarcinoma, A549 lung carcinoma), one transformed (HEK 293T transformed human embryonic kidney), and two normal human cell lines (HEF human embryonic fibroblasts and NHA normal human astrocytes) were used for these experiments. Cytotoxicity was measured by incubating the cells with serial dilutions of PM I, PM II, PM III, TP I, TP II, or TP III samples followed by MTT assay after 48 h. The half-maximal inhibitory concentrations (IC50) were measured as the peptide concentration at which cell viability was reduced by 50% in comparison to untreated cells (Table 3).
(§3) The following tumor and transformed cell lines were used in this study: HL-60 (acute promyelocytic leukemia), HeLa (human cervix adenocarcinoma cells), SK-BR-3 (human breast adenocarcinoma cells), A549 (human lung carcinoma cells), HEK 293T (transformed human embryonic kidney cells), HEF (human embryonic fibroblasts), and NHA (normal human astrocytes) were used as normal cell lines. Tumor and transformed cell lines were obtained from the American Type Culture Collection (ATCC; www.atcc.org). Primary cells HEF (normal human embryonic fibroblasts derived from human embryonic stem cells) and NHA (normal human astrocytes derived from human fetal brain tissue) were obtained and cultured according to the corresponding protocol. Briefly, cells were cultured in DMEM/F12 (1:1) or RPMI-1640 medium containing 10% fetal bovine serum (Invitrogen, USA) at 37 °C in the atmosphere containing 5% CO2 and 95% air according to standard mammalian tissue culture protocols and using a sterile technique. All cell lines were tested by using the LookOut® Mycoplasma PCR Detection Kit (Sigma-Aldrich, St. Louis, MO, USA) according to the manufacturer’s protocol and found to be free of Mycoplasma infection.
(§4) The colorimetric 3-(4,5-dimethylthiazol-2-yl)-2,5-diphenyltetrazolium bromide (MTT) dye reduction assay was used to determine the cytotoxicity of the polyphemusins and tachyplesins. Cells (3 × 10^3–6 × 10^3 per well) were placed into 96-well plates in Dulbecco’s modified Eagle’s medium (DMEM/F12) supplemented with 10% fetal bovine serum (FBS). After incubation in the atmosphere containing 5% CO2 and 95% air at 37 °C overnight, the media were discarded, and polyphemusins or tachyplesins solutions were added to the cell cultures up to final concentrations of 2.5, 5, 10, 25, and 50 μM in a final volume of 0.1 mL DMEM/F12 with 10% FBS. HL-60 cells (4 × 10^4 in 50 μL) were added to two-time serial dilutions of polyphemusins solutions at a final concentration of 1.25, 2.5, 5, 10, 25, and 50 μM in 50 μL RPMI-1640 with 10% FBS. 48 hours later, 20 μL of MTT (5 mg/mL) was added into each well and the plates were incubated for 3 h at 37 °C. The plates with HL-60 cells were centrifuged for 10 min at 300 g. The media were discarded and 0.1 mL of dimethyl sulfoxide and isopropanol mixture at a ratio of 1:1 (v/v) was added to each well to dissolve the crystallized formazan. The absorbance at 570 nm was measured by a microplate reader (Eppendorf, Hamburg, Germany).

[2] = system: SK-BR-3 (human breast adenocarcinoma cells); type: cell-based; conditions: MTT after 48 h, DMEM/F12 with 10% FBS, mean ± SD of at least three independent experiments
Procedure: as §2, §3, §4

[3] = system: HEF (human embryonic fibroblasts); type: cell-based; conditions: HEF normal cells; MTT after 48 h, DMEM/F12 with 10% FBS; mean ± SD of at least three independent experiments
Procedure: as §2, §3, §4

[4] = system: NHA (normal human astrocytes); type: cell-based; conditions: NHA normal cells; MTT after 48 h, DMEM/F12 with 10% FBS; mean ± SD of at least three independent experiments
Procedure: as §2, §3, §4

[5] = system: HeLa (human cervix adenocarcinoma cells); type: cell-based; conditions: MTT after 48 h, DMEM/F12 with 10% FBS, mean ± SD of at least three independent experiments
Procedure: as §2, §3, §4

P. aeruginosa PAO1 = assay: Antimicrobial assay, broth microdilution MIC; type: cell-based, Pseudomonas aeruginosa; conditions: P. aeruginosa PAO1, Gram -, MH medium with NaCl, 24 h 37 °C, median of three independent triplicated experiments
Procedure: as §1

## CC[C@H](C)[C@@H]1NC(=O)CNC(=O)[C@H](CCCNC(=N)N)NC(=O)[C@H](Cc2ccc(O)cc2)NC(=O)[C@@H]2CSSC[C@H](NC1=O)C(=O)N[C@@H](Cc1ccc(O)cc1)C(=O)N[C@@H](CCCNC(=N)N)C(=O)N[C@@H](CCCNC(=N)N)C(=O)N[C@H](C(=O)N[C@@H](CCCNC(=N)N)C(=O)O)CSSC[C@H](NC(=O)[C@H](Cc1c[nH]c3ccccc13)NC(=O)[C@@H](N)CCCCN)C(=O)N[C@@H](Cc1ccccc1)C(=O)N[C@@H](CCCNC(=N)N)C(=O)N[C@@H](C(C)C)C(=O)N2 [TP I, tachyplesin I] (H-KWCFRVCYRGICYRRCR-OH; disulfide 3-16, 7-12 (inferred); N-terminus assumed)
S. aureus 209P
  MICs: 0.5 µM
S. aureus ATCC 29213
  MICs: 8 µM
K. pneumoniae (CI 287)
  MICs: 0.5 µM
E. coli ML-35p
  MICs: 0.062 µM
[1]
  IC50: 23.5 ± 1.2 µM
[2]
  IC50: 30.1 ± 1.9 µM
[3]
  IC50: 13 ± 1.5 µM
[4]
  IC50: 24.7 ± 1.8 µM
[5]
  IC50: 24.2 ± 1.7 µM
P. aeruginosa PAO1
  MICs: 0.5 µM

## CC(C)[C@@H]1NC(=O)[C@H](CCCNC(=N)N)NC(=O)[C@H](Cc2ccccc2)NC(=O)[C@@H](NC(=O)[C@H](Cc2c[nH]c3ccccc23)NC(=O)[C@H](CCCNC(=N)N)NC(=O)[C@@H](N)CCCNC(=N)N)CSSC[C@@H](C(=O)N[C@@H](CCCNC(=N)N)C(=O)O)NC(=O)[C@H](CCCCN)NC(=O)[C@H](CCCNC(=N)N)NC(=O)[C@H](Cc2ccc(O)cc2)NC(=O)[C@@H]2CSSC[C@H](NC1=O)C(=O)N[C@@H](Cc1ccc(O)cc1)C(=O)N[C@@H](CCCCN)C(=O)NCC(=O)N[C@@H](Cc1ccccc1)C(=O)N2 [PM II, polyphemusin II] (H-RRWCFRVCYKGFCYRKCR-OH; disulfide 4-17, 8-13 (inferred); N-terminus assumed)
S. aureus 209P
  MICs: 0.5 µM
S. aureus ATCC 29213
  MICs: 4 µM
K. pneumoniae (CI 287)
  MICs: 0.5 µM
E. coli ML-35p
  MICs: 0.031 µM
[1]
  IC50: 11.3 ± 1.6 µM
[2]
  IC50: 17.3 ± 0.6 µM
[3]
  IC50: 7 µM and 9.7 µM
[4]
  IC50: 18.3 ± 1.4 µM
[5]
  IC50: 16.4 ± 1.3 µM
P. aeruginosa PAO1
  MICs: 0.5 µM

## CC(C)[C@@H]1NC(=O)[C@H](CCCNC(=N)N)NC(=O)[C@H](Cc2ccccc2)NC(=O)[C@@H](NC(=O)[C@H](Cc2c[nH]c3ccccc23)NC(=O)[C@H](CCCNC(=N)N)NC(=O)[C@@H](N)CCCNC(=N)N)CSSC[C@@H](C(=O)N[C@@H](CCCNC(=N)N)C(=O)O)NC(=O)[C@H](CCCCN)NC(=O)[C@H](CCCNC(=N)N)NC(=O)[C@H](Cc2ccc(O)cc2)NC(=O)[C@@H]2CSSC[C@H](NC1=O)C(=O)N[C@@H](Cc1ccc(O)cc1)C(=O)N[C@@H](CCCNC(=N)N)C(=O)NCC(=O)N[C@@H](Cc1ccccc1)C(=O)N2 [PM I, polyphemusin I] (H-RRWCFRVCYRGFCYRKCR-OH; disulfide 4-17, 8-13 (inferred); N-terminus assumed)
S. aureus 209P
  MICs: 0.5 µM
S. aureus ATCC 29213
  MICs: 4 µM
K. pneumoniae (CI 287)
  MICs: 0.5 µM
E. coli ML-35p
  MICs: 0.062 µM
[1]
  IC50: 9.4 ± 1.5 µM
[2]
  IC50: 16 ± 0.6 µM
[3]
  IC50: 8.3 ± 0.7 µM
[4]
  IC50: 14.5 ± 1.6 µM
[5]
  IC50: 12.5 ± 0.9 µM
P. aeruginosa PAO1
  MICs: 0.5 µM

## CC(C)[C@@H]1NC(=O)[C@H](CCCNC(=N)N)NC(=O)[C@H](Cc2ccccc2)NC(=O)[C@@H](NC(=O)CNC(=O)[C@H](CCCNC(=N)N)NC(=O)[C@@H](N)CCCNC(=N)N)CSSC[C@@H](C(=O)N[C@@H](CCCNC(=N)N)C(=O)O)NC(=O)[C@H](CCCNC(=N)N)NC(=O)[C@H](CCC(N)=O)NC(=O)[C@H](Cc2ccccc2)NC(=O)[C@@H]2CSSC[C@H](NC1=O)C(=O)N[C@@H](Cc1ccc(O)cc1)C(=O)N[C@@H](CCCNC(=N)N)C(=O)NCC(=O)N[C@@H](Cc1ccccc1)C(=O)N2 [PM III, polyphemusin III] (H-RRGCFRVCYRGFCFQRCR-OH; disulfide 4-17, 8-13 (inferred); N-terminus assumed)
S. aureus 209P
  MICs: 2 µM
S. aureus ATCC 29213
  MICs: 16 µM
K. pneumoniae (CI 287)
  MICs: 2 µM
E. coli ML-35p
  MICs: 0.25 µM
[1]
  IC50: 7.3 ± 0.4 µM
[2]
  IC50: 9.9 ± 0.1 µM
[3]
  IC50: 7 ± 0.4 µM
[4]
  IC50: 7.5 ± 0.5 µM
[5]
  IC50: 6 ± 0.2 µM
P. aeruginosa PAO1
  MICs: 0.5 µM

## CC[C@H](C)[C@@H]1NC(=O)CNC(=O)[C@H](CCCNC(=N)N)NC(=O)[C@H](Cc2ccc(O)cc2)NC(=O)[C@@H]2CSSC[C@H](NC1=O)C(=O)N[C@@H](Cc1ccc(O)cc1)C(=O)N[C@@H](CCCNC(=N)N)C(=O)N[C@@H](CCCCN)C(=O)N[C@H](C(=O)N[C@@H](CCCNC(=N)N)C(=O)O)CSSC[C@H](NC(=O)[C@H](Cc1c[nH]c3ccccc13)NC(=O)[C@@H](N)CCCNC(=N)N)C(=O)N[C@@H](Cc1ccccc1)C(=O)N[C@@H](CCCNC(=N)N)C(=O)N[C@@H](C(C)C)C(=O)N2 [TP II, tachyplesin II] (H-RWCFRVCYRGICYRKCR-OH; disulfide 3-16, 7-12 (inferred); N-terminus assumed)
S. aureus 209P
  MICs: 0.5 µM
S. aureus ATCC 29213
  MICs: 8 µM
K. pneumoniae (CI 287)
  MICs: 1 µM
E. coli ML-35p
  MICs: 0.062 µM
[1]
  IC50: 24.6 ± 1.7 µM
[2]
  IC50: 34 ± 1.3 µM
[3]
  IC50: 17.7 ± 1.2 µM
[4]
  IC50: 29.4 ± 1.7 µM
[5]
  IC50: 24.4 ± 3 µM
P. aeruginosa PAO1
  MICs: 0.5 µM

## CC[C@H](C)[C@@H]1NC(=O)CNC(=O)[C@H](CCCNC(=N)N)NC(=O)[C@H](Cc2ccc(O)cc2)NC(=O)[C@@H]2CSSC[C@H](NC1=O)C(=O)N[C@@H](Cc1ccc(O)cc1)C(=O)N[C@@H](CCCNC(=N)N)C(=O)N[C@@H](CCCCN)C(=O)N[C@H](C(=O)N[C@@H](CCCNC(=N)N)C(=O)O)CSSC[C@H](NC(=O)[C@H](Cc1c[nH]c3ccccc13)NC(=O)[C@@H](N)CCCCN)C(=O)N[C@@H](Cc1ccccc1)C(=O)N[C@@H](CCCNC(=N)N)C(=O)N[C@@H](C(C)C)C(=O)N2 [TP III, tachyplesin III] (H-KWCFRVCYRGICYRKCR-OH; disulfide 3-16, 7-12 (inferred); N-terminus assumed)
S. aureus 209P
  MICs: 0.5 µM
S. aureus ATCC 29213
  MICs: 16 µM
K. pneumoniae (CI 287)
  MICs: 0.5 µM
E. coli ML-35p
  MICs: 0.062 µM
[1]
  IC50: 19.7 ± 1.9 µM
[2]
  IC50: 27.5 ± 0.8 µM
[3]
  IC50: 14.1 ± 1.2 µM
[4]
  IC50: 21.3 ± 1.2 µM
[5]
  IC50: 13.7 ± 1.3 µM
P. aeruginosa PAO1
  MICs: 0.5 µM

Source: paper PMC6315362, “Cytotoxic Potential of the Novel Horseshoe Crab Peptide Polyphemusin III” (Marine Drugs, 2018)
